19 compounds from publication PMC8037033, “Synthesis and Rational Design of New Appended 1,2,3-Triazole-uracil Ensembles as Promising Anti-Tumor Agents via In Silico VEGFR-2 Transferase Inhibition” (Molecules, 2021) can be followed below.

The term IC50 denotes the concentration that inhibits the measured activity by half. Read a high IC50 as weaker potency. In general, melting point refers to the temperature, or range, at which the solid turns liquid.

Where only a bound is given, the exact number is not on record here.

Data set [1] concerns NIH/3T3 normal cells. The data set is described as follows: MTT cytotoxicity assay, NIH/3T3 normal cells. Format: cell-based, murine. The settings on record: Mus musculus, NIH3T3, 72 h. The method, then: (§1) The cell viability was measured by MTT colourimetric assay. The cell lines viz., HeLa (human cervical adenocarcinoma), HUH-7 (human hepatoma cancer cells) and NIH/3T3 (normal murine fibroblast cells) were supplemented with 10% fetal bovine serum and maintained in an environment of 5% CO2 at 37 °C temperature. Cell lines at a density of 2 × 10^3 cells/well were seeded onto 96 well plates for 16 h and maintained in DMEM culture media. Five different concentrations of synthesized ligands and 5-fluorouracil (except for normal cells) i.e., 0.1, 0.5, 1, 5 and 10 μM were treated against each cell line and incubated for 3 days at 37 °C [56]. Then, the solutions were discarded and an MTT reagent with a final concentration of 500 μg/mL was added to each well and plate and incubated for another 4–6 h. 200 μL of DMSO was added to solubilize purple precipitates (formazan product) and absorbance (optical density) was recorded at 570 nm on ELISA reader. IC50 values were calculated using dose-response data by applying the linear regression method. The experiments were done in triplicate for each concentration of ligand.
(In general: Tetrazolium assays rely on reduction of a dye to a coloured formazan, in cell work by metabolically active cells.)

In data set [2] the test system is HUH-7 tumor cells. In words: MTT cytotoxicity assay, HUH-7. The class given is cell-based. The note with it: Homo sapiens, 72 h. Here is the method: as §1
Data set [3] deals with HeLa tumor cells. In words: MTT cytotoxicity assay, HeLa. The settings on record: 72 h. The class given is cell-based, human. The method, then: as §1

For `Cn1c(=O)cc(Cl)n(Cc2cn(-c3ccc(Cl)cc3)nn2)c1=O` [Compound 5c, 6-Chloro-1-((1-(4-chlorophenyl)-1H-1,2,3-triazol-4-yl)methyl)-3-methylpyrimidine-2,4(1H,3H)-dione], the melting point was found to be 100 °C. Further, the IC50 in data set [1] was above 10 µM. Further, in data set [2], the IC50 is above 10 µM. In data set [3] (Homo sapiens, HeLa), the IC50 was above 10 µM.
`Cn1c(=O)cc(Cl)n(Cc2cn(Cc3nc(C4=Cc5ccccc5OC4)no3)nn2)c1=O` [Compound 5k, 1-((1-((3-(2H-Chromen-3-yl)-1,2,4-oxadiazol-5-yl)methyl)-1H-1,2,3-triazol-4-yl)methyl)-6-chloro-3-methylpyrimidine-2,4(1H,3H)-dione] registered a melting point of 125 to 128 °C. The IC50 in data set [1] is above 10 µM. Also, the half-inhibitory concentration (IC50) in data set [2] is above 10 µM. The half-inhibitory concentration (IC50) in data set [3] (Homo sapiens, HeLa) is above 10 µM.
For the compound `COc1ccc(-n2cc(Cn3c(Cl)cc(=O)n(C)c3=O)nn2)cc1` [Compound 5e, 6-Chloro-1-((1-(4-methoxyphenyl)-1H-1,2,3-triazol-4-yl)methyl)-3-methylpyrimidine-2,4-(1H,3H)-dione], the melting point was in the range of 145 to 148 °C. This compound also came in with a half-inhibitory concentration (IC50) in data set [1] above 10 µM. For the same compound, the IC50 in data set [2] is above 10 µM. This compound also had a half-maximal inhibitory concentration (IC50) in data set [3] (Homo sapiens, HeLa) above 10 µM.
`Cn1c(=O)cc(Cl)n(Cc2cn(CCCCCn3cc(Cn4c(Cl)cc(=O)n(C)c4=O)nn3)nn2)c1=O` [Compound 5r, 1,1’-((Pentane-1,5-diylbis(1H-1,2,3-triazole-1,4-diyl))bis(methylene))bis(6-chloro-3-methylpyrimidine-2,4(1H,3H)-dione)]: the melting point is 114 to 115 °C. In addition, the half-maximal inhibitory concentration (IC50) in data set [1] was above 10 µM. Besides, in data set [2], the IC50 was above 10 µM. The compound further came in with a half-maximal inhibitory concentration (IC50) in data set [3] (Homo sapiens, HeLa) of 9.6 ± 0.9 µM.
For the compound `Cn1c(=O)cc(Cl)n(Cc2cn(-c3ccc(F)cc3)nn2)c1=O` [Compound 5b, 6-Chloro-1-((1-(4-fluorophenyl)-1H-1,2,3-triazol-4-yl)methyl)-3-methylpyrimidine-2,4(1H,3H)-dione], the melting point worked out at 97 °C. This compound registered a half-inhibitory concentration (IC50) in data set [1] above 10 µM. This compound yielded an IC50 in data set [2] above 10 µM. The compound also returned a concentration for half-maximal inhibition (IC50) in data set [3] (Homo sapiens, HeLa) above 10 µM.
Regarding `Cn1c(=O)cc(Cl)n(Cc2cn(CCCCn3cc(Cn4c(Cl)cc(=O)n(C)c4=O)nn3)nn2)c1=O` [Compound 5q, 1,1’-((Butane-1,4-diylbis(1H-1,2,3-triazole-1,4-diyl))bis(methylene))bis(6-chloro-3-methylpyrimidine-2,4(1H,3H)-dione)], the melting point is 115 to 118 °C. The concentration for half-maximal inhibition (IC50) in data set [1] is above 10 µM. This compound also showed a half-inhibitory concentration (IC50) in data set [2] above 10 µM. Further, the IC50 in data set [3] (Homo sapiens, HeLa) was above 10 µM.
Take `Cc1ccc(Cn2cc(Cn3c(Cl)cc(=O)n(C)c3=O)nn2)cc1` [Compound 5h, 6-Chloro-3-methyl-1-((1-(4-methylbenzyl)-1H-1,2,3-triazol-4-yl)methyl)pyrimidine-2,4(1H,3H)-dione]: the half-inhibitory concentration (IC50) in data set [1] is above 10 µM; in data set [2] it was 7.7 ± 0.3 µM; in data set [3] (Homo sapiens, HeLa), 4.5 ± 0.5 µM.
`Cn1c(=O)cc(Cl)n(Cc2cn(Cc3cccc(Oc4ccccc4)c3)nn2)c1=O` [Compound 5j, 6-Chloro-3-methyl-1-((1-(3-phenoxybenzyl)-1H-1,2,3-triazol-4-yl)methyl)pyrimidine-2,4(1H,3H)-dione] had a melting point of 101 to 105 °C. Moreover, the half-maximal inhibitory concentration (IC50) in data set [1] is above 10 µM. The same compound registered an IC50 in data set [2] above 10 µM. Besides, half-maximal inhibition in data set [3] (Homo sapiens, HeLa) (IC50) required 10 ± 1.5 µM.
As to `Cn1c(=O)cc(Cl)n(Cc2cn(-c3ccccc3)nn2)c1=O` [Compound 5a, 6-Chloro-3-methyl-1-((1-phenyl-1H-1,2,3-triazol-4-yl)methyl)pyrimidine-2,4(1H,3H)-dione], the melting point lay in the range of 120 to 121 °C. In data set [1], this compound displayed an IC50 above 10 µM. Moreover, the IC50 in data set [2] was above 10 µM. In data set [3] (Homo sapiens, HeLa), this compound yielded an IC50 of 11.2 ± 0.1 µM.
For the compound `Cn1c(=O)cc(Cl)n(Cc2cn(-c3ccc([N+](=O)[O-])cc3)nn2)c1=O` [Compound 5d, 6-Chloro-3-methyl-1-((1-(4-nitrophenyl)-1H-1,2,3-triazol-4-yl)methyl)pyrimidine-2,4(1H,3H)-dione], the melting point fell in the range of 110 to 112 °C. The compound also showed an IC50 in data set [1] above 10 µM. This compound also gave an IC50 in data set [2] above 10 µM. This compound showed an IC50 in data set [3] (Homo sapiens, HeLa) above 10 µM.
With `O=c1[nH]cc(F)c(=O)[nH]1` [Compound 5-FU, 5-fluorouracil, reference compound], the half-inhibitory concentration (IC50) in data set [2] is 30 ± 2.5 µM; in data set [3] (Homo sapiens, HeLa) it was 4.6 ± 0.2 µM.
In turn, `Cn1c(=O)cc(Cl)n(Cc2cn(CCCN3C(=O)c4cccc5cccc(c45)C3=O)nn2)c1=O` [Compound 5n, 2-(3-(4-((6-Chloro-3-methyl-2,4-dioxo-3,4-dihydropyrimidin-1(2H)-yl)methyl)-1H-1,2,3-triazol-1-yl)propyl)-1H-benzo[de]isoquinoline-1,3(2H)-dione] returned a melting point of 96 to 98 °C. Besides, the half-maximal inhibitory concentration (IC50) in data set [1] is above 10 µM. Further, the IC50 in data set [2] is above 10 µM. In addition, in data set [3] (Homo sapiens, HeLa), the IC50 stood at 9.6 ± 1.2 µM.
`COc1cccc2c1OCC(c1noc(Cn3cc(Cn4c(Cl)cc(=O)n(C)c4=O)nn3)n1)=C2` [Compound 5l, 6-Chloro-1-((1-((3-(8-methoxy-2H-chromen-3-yl)-1,2,4-oxadiazol-5-yl)methyl)-1H-1,2,3-triazol-4-yl)methyl)-3-methylpyrimidine-2,4(1H,3H)-dione] showed a melting point of 122 to 125 °C. In addition, the IC50 in data set [1] was above 10 µM. For the same compound, the IC50 in data set [2] is above 10 µM. The compound also displayed an IC50 in data set [3] (Homo sapiens, HeLa) above 10 µM.
Turning to `Cn1c(=O)cc(Cl)n(Cc2cn(Cc3ccccc3)nn2)c1=O` [Compound 5f, 1-((1-Benzyl-1H-1,2,3-triazol-4-yl)methyl)-6-chloro-3-methylpyrimidine-2,4(1H,3H)-dione], the melting point lay in the range of 115 to 118 °C. The same compound came in with an IC50 in data set [1] above 10 µM. In data set [2], this compound yielded an IC50 of 10.8 ± 0.5 µM. In data set [3] (Homo sapiens, HeLa), this compound yielded a concentration for half-maximal inhibition (IC50) above 10 µM.
Take `CCCCCCCCn1cc(Cn2c(Cl)cc(=O)n(C)c2=O)nn1` [Compound 5p, 6-Chloro-3-methyl-1-((1-octyl-1H-1,2,3-triazol-4-yl)methyl)pyrimidine-2,4(1H,3H)-dione]: the IC50 in data set [1] is above 10 µM; in data set [2], above 10 µM; in data set [3] (Homo sapiens, HeLa) it was above 10 µM.
Turning to `CCCCCCn1cc(Cn2c(Cl)cc(=O)n(C)c2=O)nn1` [Compound 5o, 6-Chloro-1-((1-hexyl-1H-1,2,3-triazol-4-yl)methyl)-3-methylpyrimidine-2,4(1H,3H)-dione], the melting point fell in the range of 100 to 102 °C. Moreover, the 50% inhibitory concentration (IC50) in data set [1] is above 10 µM. Moreover, in data set [2], the IC50 is above 10 µM. The compound further had an IC50 in data set [3] (Homo sapiens, HeLa) above 10 µM.
In the case of `COc1cccc(Cn2cc(Cn3c(Cl)cc(=O)n(C)c3=O)nn2)c1` [Compound 5i, 6-Chloro-1-((1-(3-methoxybenzyl)-1H-1,2,3-triazol-4-yl)methyl)-3-methylpyrimidine-2,4(1H,3H)-dione], the melting point fell in the range of 98 to 100 °C. Also, the concentration for half-maximal inhibition (IC50) in data set [1] was above 10 µM. In data set [2], this compound came in with an IC50 of 9 ± 0.8 µM. The IC50 in data set [3] was above 10 µM. The compound also displayed a 50% inhibitory concentration (IC50) in data set [3] (Homo sapiens, HeLa) of 9 µM.
`Cc1cc(=O)oc2cc(OCCCCn3cc(Cn4c(Cl)cc(=O)n(C)c4=O)nn3)ccc12` [Compound 5m, 6-Chloro-3-methyl-1-((1-(4-((4-methyl-2-oxo-2H-chromen-7-yl)oxy)butyl)-1H-1,2,3-triazol-4-yl)methyl)pyrimidine-2,4(1H,3H)-dione]: the melting point lay in the range of 145 to 148 °C. In data set [1], this compound showed a 50% inhibitory concentration (IC50) above 10 µM. Besides, in data set [2], the IC50 is above 10 µM. For the same compound, the IC50 in data set [3] (Homo sapiens, HeLa) is above 10 µM.
The compound `Cn1c(=O)cc(Cl)n(Cc2cn(Cc3ccc(Br)cc3)nn2)c1=O` [Compound 5g, 1-((1-(4-Bromobenzyl)-1H-1,2,3-triazol-4-yl)methyl)-6-chloro-3-methylpyrimidine-2,4(1H,3H)-dione] gave a melting point of 138 to 140 °C. The IC50 in data set [1] was above 10 µM. Also, in data set [2], the 50% inhibitory concentration (IC50) is above 10 µM. Besides, in data set [3] (Homo sapiens, HeLa), the IC50 is above 10 µM.
